pIC50: −log10 of the molar value.
Experiments:
[1] = molecular target: Mitogen-activated protein kinase 9 (Homo sapiens) (UniProt P45984); test: Inhibition of recombinant full length human His-tagged MAPK9 expressed in baculovirus expression system at 1 uM using biotin as substrate preincubated for 5 mins followed by substrate addition and measured after 30 to 60 mins in presence of ATP by HTRF assay relative to control
[2] = molecular target: Cyclin-dependent kinase 5/CDK5 activator 1 (Homo sapiens) (UniProt Q00535+Q15078); test: Inhibition of recombinant full length human GST/His-tagged CDK5/p25 expressed in baculovirus expression system at 1 uM using biotin as substrate preincubated for 5 mins followed by substrate addition and measured after 30 to 60 mins in presence of ATP by HTRF assay relative to control
Cyclin-dependent kinase 5/CDK5 activator 1 (Homo sapiens), sequence (Q00535 whole entry): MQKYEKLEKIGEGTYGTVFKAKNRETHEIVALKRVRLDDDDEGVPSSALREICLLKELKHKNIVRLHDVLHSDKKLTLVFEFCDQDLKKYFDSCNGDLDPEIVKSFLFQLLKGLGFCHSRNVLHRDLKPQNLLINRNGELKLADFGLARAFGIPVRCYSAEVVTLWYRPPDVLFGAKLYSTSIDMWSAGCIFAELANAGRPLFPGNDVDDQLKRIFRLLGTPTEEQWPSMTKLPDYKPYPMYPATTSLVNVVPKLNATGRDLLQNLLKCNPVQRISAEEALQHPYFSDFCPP
Cyclin-dependent kinase 5/CDK5 activator 1 (Homo sapiens), sequence (Q15078 99-307 partner limits assumed): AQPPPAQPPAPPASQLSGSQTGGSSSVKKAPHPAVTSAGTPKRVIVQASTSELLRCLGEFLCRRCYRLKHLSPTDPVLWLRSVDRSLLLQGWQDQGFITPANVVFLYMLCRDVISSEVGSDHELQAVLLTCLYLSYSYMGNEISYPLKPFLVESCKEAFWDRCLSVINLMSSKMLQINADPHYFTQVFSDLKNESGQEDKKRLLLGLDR

[3] = molecular target: Macrophage-stimulating protein receptor (Homo sapiens, UniProt Q04912); test: Inhibition of recombinant human GST-tagged RON expressed in baculovirus system using biotin as substrate preincubated for 5 mins followed by substrate addition and measured after 30 to 60 mins in presence of ATP by HTRF assay
Macrophage-stimulating protein receptor, sequence (Q04912 25-304 limits assumed): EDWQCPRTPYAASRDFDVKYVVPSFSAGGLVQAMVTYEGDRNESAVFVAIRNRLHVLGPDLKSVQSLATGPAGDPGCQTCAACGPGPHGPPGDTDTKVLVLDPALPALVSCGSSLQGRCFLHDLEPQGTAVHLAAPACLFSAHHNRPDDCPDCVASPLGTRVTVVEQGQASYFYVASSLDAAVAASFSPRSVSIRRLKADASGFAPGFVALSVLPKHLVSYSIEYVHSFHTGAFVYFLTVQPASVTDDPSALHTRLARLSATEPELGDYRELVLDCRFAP
Macrophage-stimulating protein receptor, sequence (Q04912 310-1400 limits assumed): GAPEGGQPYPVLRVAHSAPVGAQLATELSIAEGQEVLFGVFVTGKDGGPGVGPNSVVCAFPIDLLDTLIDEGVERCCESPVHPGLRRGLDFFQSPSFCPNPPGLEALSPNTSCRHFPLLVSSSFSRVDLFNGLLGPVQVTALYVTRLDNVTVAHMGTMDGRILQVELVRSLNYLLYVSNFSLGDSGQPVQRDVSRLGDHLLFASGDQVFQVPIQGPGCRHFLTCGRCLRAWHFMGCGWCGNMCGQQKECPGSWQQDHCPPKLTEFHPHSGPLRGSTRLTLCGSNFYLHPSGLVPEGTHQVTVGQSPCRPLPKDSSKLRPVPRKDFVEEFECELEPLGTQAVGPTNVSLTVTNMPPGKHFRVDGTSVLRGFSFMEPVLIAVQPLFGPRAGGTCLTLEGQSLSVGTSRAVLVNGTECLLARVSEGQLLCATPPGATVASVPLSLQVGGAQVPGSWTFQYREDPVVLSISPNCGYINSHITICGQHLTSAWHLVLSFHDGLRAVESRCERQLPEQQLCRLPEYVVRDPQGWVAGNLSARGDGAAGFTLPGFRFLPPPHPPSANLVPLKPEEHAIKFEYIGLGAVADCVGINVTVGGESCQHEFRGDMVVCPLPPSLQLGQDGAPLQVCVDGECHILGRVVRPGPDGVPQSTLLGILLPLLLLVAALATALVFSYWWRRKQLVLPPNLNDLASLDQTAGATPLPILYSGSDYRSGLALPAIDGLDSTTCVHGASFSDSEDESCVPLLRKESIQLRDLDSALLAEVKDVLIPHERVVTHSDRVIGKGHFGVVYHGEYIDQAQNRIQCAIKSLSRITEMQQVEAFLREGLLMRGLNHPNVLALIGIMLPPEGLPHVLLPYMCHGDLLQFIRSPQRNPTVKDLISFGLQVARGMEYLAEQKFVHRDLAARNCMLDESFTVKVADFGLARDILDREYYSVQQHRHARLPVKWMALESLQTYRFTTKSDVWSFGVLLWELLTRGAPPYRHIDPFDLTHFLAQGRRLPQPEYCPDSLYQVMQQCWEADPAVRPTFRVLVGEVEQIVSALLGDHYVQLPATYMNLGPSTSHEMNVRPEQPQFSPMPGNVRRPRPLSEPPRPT

[4] = molecular target: Insulin-like growth factor 1 receptor (Homo sapiens) (UniProt P08069); test: Inhibition of recombinant full length human His-tagged IGF1R expressed in baculovirus expression system at 1 uM using biotin as substrate preincubated for 5 mins followed by substrate addition and measured after 30 to 60 mins in presence of ATP by HTRF assay relative to control
Insulin-like growth factor 1 receptor (Homo sapiens), sequence (P08069 31-736 limits assumed): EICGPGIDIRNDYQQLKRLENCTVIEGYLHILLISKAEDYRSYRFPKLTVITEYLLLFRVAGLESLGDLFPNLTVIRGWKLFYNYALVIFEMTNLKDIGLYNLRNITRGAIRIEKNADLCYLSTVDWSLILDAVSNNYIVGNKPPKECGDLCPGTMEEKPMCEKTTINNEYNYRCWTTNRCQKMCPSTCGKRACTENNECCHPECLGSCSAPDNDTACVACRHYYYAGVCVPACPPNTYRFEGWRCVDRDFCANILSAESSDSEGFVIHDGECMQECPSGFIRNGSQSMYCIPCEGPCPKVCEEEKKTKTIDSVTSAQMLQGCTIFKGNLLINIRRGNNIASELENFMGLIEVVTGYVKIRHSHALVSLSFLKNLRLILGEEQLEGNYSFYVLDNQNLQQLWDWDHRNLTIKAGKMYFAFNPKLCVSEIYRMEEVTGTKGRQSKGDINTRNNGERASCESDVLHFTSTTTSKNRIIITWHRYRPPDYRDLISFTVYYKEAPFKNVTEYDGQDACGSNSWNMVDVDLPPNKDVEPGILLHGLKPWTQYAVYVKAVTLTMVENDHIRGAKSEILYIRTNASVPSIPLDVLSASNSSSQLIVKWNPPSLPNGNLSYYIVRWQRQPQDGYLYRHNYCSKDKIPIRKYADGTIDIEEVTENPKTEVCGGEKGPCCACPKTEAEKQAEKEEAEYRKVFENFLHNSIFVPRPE
Insulin-like growth factor 1 receptor (Homo sapiens), sequence (P08069 741-1367 limits assumed): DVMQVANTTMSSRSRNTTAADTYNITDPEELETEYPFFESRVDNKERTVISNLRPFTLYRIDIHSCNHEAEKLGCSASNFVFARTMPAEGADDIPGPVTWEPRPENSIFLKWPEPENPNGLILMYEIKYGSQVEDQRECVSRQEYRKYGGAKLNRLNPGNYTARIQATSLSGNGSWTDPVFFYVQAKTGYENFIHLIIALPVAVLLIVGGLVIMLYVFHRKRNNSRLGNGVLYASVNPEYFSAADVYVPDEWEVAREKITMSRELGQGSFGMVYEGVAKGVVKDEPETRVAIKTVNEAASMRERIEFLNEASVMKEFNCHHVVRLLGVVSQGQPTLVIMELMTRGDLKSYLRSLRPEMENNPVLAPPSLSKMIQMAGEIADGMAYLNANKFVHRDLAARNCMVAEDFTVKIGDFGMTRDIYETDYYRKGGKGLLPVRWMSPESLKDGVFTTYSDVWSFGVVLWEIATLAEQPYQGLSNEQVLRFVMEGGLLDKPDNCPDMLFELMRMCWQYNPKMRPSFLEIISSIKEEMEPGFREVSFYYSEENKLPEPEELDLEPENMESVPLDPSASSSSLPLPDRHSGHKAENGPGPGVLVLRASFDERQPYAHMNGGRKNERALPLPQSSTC

[5] = molecular target: Fibroblast growth factor receptor 1 (Homo sapiens) (UniProt P11362); test: Inhibition of recombinant human N-terminal His-tagged FGFR1 catalytic domain (399 to 822 residues) expressed in baculovirus infected Sf21 insect cells at 1 uM using biotin as substrate preincubated for 5 mins followed by substrate addition and measured after 30 to 60 mins in presence of ATP by HTRF assay relative to control
Fibroblast growth factor receptor 1 (Homo sapiens), sequence (P11362 22-822 limits assumed): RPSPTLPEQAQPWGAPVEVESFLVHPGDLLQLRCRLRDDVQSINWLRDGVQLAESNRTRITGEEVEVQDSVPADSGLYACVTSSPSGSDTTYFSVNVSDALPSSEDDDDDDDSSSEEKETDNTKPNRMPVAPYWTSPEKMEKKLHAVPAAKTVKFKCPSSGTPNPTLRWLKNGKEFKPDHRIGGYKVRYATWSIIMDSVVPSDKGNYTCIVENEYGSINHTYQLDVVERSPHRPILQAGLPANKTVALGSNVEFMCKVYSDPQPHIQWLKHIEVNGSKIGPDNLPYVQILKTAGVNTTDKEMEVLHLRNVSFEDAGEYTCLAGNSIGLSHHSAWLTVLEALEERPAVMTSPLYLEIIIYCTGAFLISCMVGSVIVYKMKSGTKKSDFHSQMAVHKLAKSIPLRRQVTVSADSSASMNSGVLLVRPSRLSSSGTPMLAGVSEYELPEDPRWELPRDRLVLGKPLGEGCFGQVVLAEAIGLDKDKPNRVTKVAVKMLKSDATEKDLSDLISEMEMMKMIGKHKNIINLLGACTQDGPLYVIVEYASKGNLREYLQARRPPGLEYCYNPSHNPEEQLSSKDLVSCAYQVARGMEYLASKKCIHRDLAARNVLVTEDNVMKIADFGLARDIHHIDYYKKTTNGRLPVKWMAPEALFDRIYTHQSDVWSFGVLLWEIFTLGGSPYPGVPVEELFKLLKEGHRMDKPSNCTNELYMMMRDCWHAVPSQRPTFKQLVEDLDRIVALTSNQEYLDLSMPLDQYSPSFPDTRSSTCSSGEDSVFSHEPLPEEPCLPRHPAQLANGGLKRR

[6] = AUC (0 to infinity) in Sprague-Dawley rat at 5.0 mg/kg, ig measured for 15 min to 72 hrs by LC-MS/MS analysis; format: ADME, organism-based; design: dose 5 mg/kg, time infinity, route intragastric; details: in vivo, po

Mitogen-activated protein kinase 9 (Homo sapiens), sequence (P45984 whole entry, looked up): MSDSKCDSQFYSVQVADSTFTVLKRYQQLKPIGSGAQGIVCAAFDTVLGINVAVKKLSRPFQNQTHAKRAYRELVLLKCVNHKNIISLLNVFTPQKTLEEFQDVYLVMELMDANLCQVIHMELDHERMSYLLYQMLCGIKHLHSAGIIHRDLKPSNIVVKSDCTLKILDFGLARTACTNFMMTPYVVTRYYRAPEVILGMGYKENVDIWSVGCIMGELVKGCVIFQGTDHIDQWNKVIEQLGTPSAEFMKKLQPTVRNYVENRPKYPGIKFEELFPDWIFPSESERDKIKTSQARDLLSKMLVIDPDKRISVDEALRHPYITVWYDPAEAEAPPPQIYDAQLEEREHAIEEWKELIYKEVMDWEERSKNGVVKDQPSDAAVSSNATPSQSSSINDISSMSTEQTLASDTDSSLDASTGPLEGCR

Structure (SMILES): Cn1cc(-c2ccc(F)cc2)c(=O)c2c(Nc3ccc(Oc4ccnc(NC(=O)C5CC5)c4)c(F)c3)nccc21
- inhibition [1]: < 50%
- inhibition [2]: < 50%
- pIC50 [3]: 6.46
- inhibition [4]: < 50%
- inhibition [5]: < 50%
- AUC(0-inf) [6]: 233 µg·h/mL

Reference: ChEMBL document CHEMBL4373740, “Synthesis and biological evaluation of new MET inhibitors with 1,6-naphthyridinone scaffold” (Eur J Med Chem, 2020)
